Measurements as given in ChEMBL document CHEMBL1201862, “PubChem BioAssay data set” (2004).
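1) Cells in 96-well plates. 2) Compound, 48 h, 5 concentrations. 3) Linear interpolation between surrounding doses. 4) Unreached endpoint = highest concentration. GI50 marks 50% less growth.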 Activity calls are given as the source filed them. No stated cut-off is given here; in the data, active = GI50 up to about 1.1 µM and inactive = higher.

What was measured:
Experiment in all cases: inhibition of tumour cell growth, NCI panel, 48 h
[1] = system: SN12C
[2] = system: HOP-62
[3] = system: TK-10
[4] = system: HCC 2998
[5] = system: MDA-N
[6] = system: UACC-257
[7] = system: HT-29
[8] = system: PC-3
[9] = system: OVCAR-4
[10] = system: HCT-15
[11] = system: SF-268
[12] = system: LOX IMVI
[13] = system: RPMI-8226
[14] = system: MOLT-4
[15] = system: ACHN
[16] = system: 786-0
[17] = system: M14
[18] = system: SNB-75
[19] = system: T47D
[20] = system: A549

| Compound | GI50 [1] | GI50 [2] | GI50 [3] | GI50 [4] | GI50 [5] | GI50 [6] | GI50 [7] | GI50 [8] | GI50 [9] | GI50 [10] | GI50 [11] | GI50 [12] | GI50 [13] | GI50 [14] | GI50 [15] | GI50 [16] | GI50 [17] | GI50 [18] | GI50 [19] | GI50 [20] |
| --- | --- | --- | --- | --- | --- | --- | --- | --- | --- | --- | --- | --- | --- | --- | --- | --- | --- | --- | --- | --- |
| Cc1cc(N(CCOS(C)(=O)=O)CCOS(C)(=O)=O)ccc1/C=N/c1ccc(-c2nc(Cc3ccccc3)sc2C)cc1 | 5.4 µM (inactive) | 1.75 µM (inactive) | 4.6 µM (inactive) | 3.77 µM (inactive) | 11.8 µM (inactive) | 12.1 µM (inactive) | 5.3 µM (inactive) | 10.3 µM (inactive) | 15.5 µM (inactive) | 11.2 µM | 3.99 µM (inactive) | 5.37 µM (inactive) | 3.82 µM (inactive) | 1.23 µM (inactive) | 0.404 µM (active) | 1.28 µM (inactive) | 4.86 µM (inactive) | 1.66 µM (inactive) | 2.03 µM (inactive) | 1.33 µM (inactive) |
| CC(C)NC(=O)OCc1c(COC(=O)NC(C)C)c(-c2cc[n+](COC(=O)C3CCCCC3)cc2)n2c1CCC2 | > 100 µM (inactive) | > 100 µM (inactive) | > 100 µM (inactive) | > 100 µM (inactive) | > 100 µM (inactive) | > 100 µM (inactive) | > 100 µM (inactive) | > 100 µM (inactive) | > 100 µM (inactive) | > 100 µM | 91.2 µM (inactive) | > 100 µM (inactive) | > 100 µM (inactive) | 40.8 µM (inactive) | 44.9 µM (inactive) | > 100 µM (inactive) | > 100 µM (inactive) | 43.4 µM (inactive) | > 100 µM (inactive) | > 100 µM (inactive) |
| O=C(c1ccccn1)c1nnn2ccccc12 | > 100 µM (inactive) | > 100 µM (inactive) | > 100 µM (inactive) | > 100 µM (inactive) | > 100 µM (inactive) | > 100 µM (inactive) | > 100 µM (inactive) | > 100 µM (inactive) | > 100 µM (inactive) | > 100 µM | > 100 µM (inactive) | > 100 µM (inactive) | > 100 µM (inactive) | > 100 µM (inactive) | > 100 µM (inactive) | > 100 µM (inactive) | > 100 µM (inactive) | > 100 µM (inactive) | > 100 µM (inactive) | > 100 µM (inactive) |
| Cc1cccc2cc3ccc4ccccc4c3cc12 | 51.6 µM (inactive) | 68.4 µM (inactive) | 36.6 µM (inactive) | 19.9 µM (inactive) | 38.9 µM (inactive) | 20 µM (inactive) | 30.7 µM (inactive) | 66.5 µM (inactive) | 47.3 µM (inactive) | 47 µM | > 100 µM (inactive) | 39.4 µM (inactive) | 34.6 µM (inactive) | 25.7 µM (inactive) | 46.7 µM (inactive) | 41.7 µM (inactive) | 48.5 µM (inactive) | 69.2 µM (inactive) | 22.1 µM (inactive) | 37.1 µM (inactive) |
| COc1ccc(C2C(C#N)=C(S)N(C3OC(COC(C)=O)C(OC(C)=O)C(OC(C)=O)C3OC(C)=O)C(c3ccccc3)=C2C(C)=O)cc1 (stereo not given) | > 100 µM (inactive) | > 100 µM (inactive) | > 100 µM (inactive) | > 100 µM (inactive) | 58.5 µM (inactive) | > 100 µM (inactive) | > 100 µM (inactive) | > 100 µM (inactive) | > 100 µM (inactive) | > 100 µM | > 100 µM (inactive) | > 100 µM (inactive) | 92 µM (inactive) | 64.4 µM (inactive) | > 100 µM (inactive) | > 100 µM (inactive) | > 100 µM (inactive) | 18.7 µM (inactive) | 17.3 µM (inactive) | > 100 µM (inactive) |
| CC(=O)c1ccc(Nc2c3c(nc4ccccc24)CCCC3)cc1 | 22.9 µM (inactive) | 10.3 µM (inactive) | 42.5 µM (inactive) | 42.1 µM (inactive) | 2.72 µM (inactive) | 24.5 µM (inactive) | 10.2 µM (inactive) | 41.1 µM (inactive) | 41.9 µM (inactive) | 13.7 µM | 40.2 µM (inactive) | 10 µM (inactive) | 27.6 µM (inactive) | 9.59 µM (inactive) | 38.3 µM (inactive) | 25.7 µM (inactive) | 12.6 µM (inactive) | 4.12 µM (inactive) | 10.1 µM (inactive) | 19 µM (inactive) |
| CNC(=O)OC1/C(C)=C\C(C)C(O)C(OC)CC(C)CC2=C(OC)C(=O)C=C(C2=O)N(C)C(=O)/C(C)=C/C=C\C1OC (stereo not given) | 3.62 µM (inactive) | 14.4 µM (inactive) | 7.64 µM (inactive) | 4.39 µM (inactive) | 1.33 µM (inactive) | 5.02 µM (inactive) | 1.19 µM (inactive) | 11.5 µM (inactive) | 9.23 µM (inactive) | 6.76 µM | 9.73 µM (inactive) | 4.68 µM (inactive) | 1.67 µM (inactive) | 0.891 µM (active) | 8.24 µM (inactive) | 4.31 µM (inactive) | 3.08 µM (inactive) | 14.2 µM (inactive) | 1.57 µM (inactive) | 14.3 µM (inactive) |
